Like-named read-outs stand apart in the source and are kept apart here.

This test has as its system human prostate cancer cell line LNCaP. In words: Antiproliferation test with the human prostate cancer cell line (LNCaP). To be noted: LNCaP cells; for IC50: growth stimulated by 0.1 nM R1881, 7 days, MTT readout, read-out: Antiandrogeneity IC50 in the presence of 0.1 nM of R1881; for Androgeneity at 1 μM: test compound at 1 μM, growth stimulation by 0.1 nM of R1881 was set = 100%. It is filed as cell-based. An excerpt:
Antiproliferation Test with the Human Prostate Cancer Cell Line (LNCaP)
The human prostate cancer cell line LNCaP [American Type Culture Collection (ATCC)=Accession No.: CRL 1740; Horoszewicz et al., Cancer Research, 43 pp. 1809-18, 1983] was isolated from the lymph node metastasis of a prostate cancer patient. It expresses the androgen receptor and can be stimulated in growth by androgens. The androgen-mediated growth stimulation can be blocked by simultaneous administration of antiandrogens. The antiandrogenic active strength (IC50) of test compounds can be determined by dose-action correlations.
The cells are cultivated in RPMI 1640 medium with penicillin (10,000 units/l), streptomycin (100 mg/l), glutamine ([…]), 10% fetal calf serum and 0.1 nM of the synthetic androgen R1881 (Metribolone, Roussel).
Day 1: Sowing of the cells in a density of 5,000-6,000/100 μl/hole in 96-hole plates. Adding test compound (100 μl/hole doubly concentrated) to the culture medium with 0.2 nM of R1881 (yields 0.1 nM final concentration). Incubation of the cells for 72 or 96 hours at 37° C., 5% CO2, 90% relative atmospheric humidity. In the culture medium, the fetal calf serum is replaced by 5% activated carbon-treated (steroid-free) serum.
Day 3 or 4: Medium change: In each case in 50% of the medium, inclusive test compounds are replaced by fresh medium. Incubation of the cells for 96 or 72 hours at 37° C., 5% CO2, 90% relative atmospheric humity.
Day 7: Adding 25 μl of MTT solution per hole {MTT=(3[4,5-dimethylthiazol-2-yl]-2,5-diphenaltetrazolium bromide (thiazolyl blue}. Incubation is for 3 hours at 37° C., 5% CO2, 90% relative atmospheric humidity. After the removal of the supernatant, addition of 100 μl of DMSO per hole. Measurement of the optical density at […].
The antiandrogens OH-flutamide and casodex that are found in clinical practice were tested, as well as the compound EM-101 (N-butyl, N-methyl-11-(17′β-hydroxy-4′-androsten-3′-on-7′α-yl)undecanamide of WO 91/00732.

For the molecule `CC(C)(O)C(=O)Nc1ccc([N+](=O)[O-])c(C(F)(F)F)c1` [OH-flutamide], the concentration for half-maximal inhibition (IC50) is more than 10000 nM and the “Androgeneity at 1 μM” value amounted to 144%.

As for `C[C@]12CCC(=O)C=C1C[C@@H](CCCCCCCCCO)[C@@H]1[C@@H]2CC[C@@]2(C)[C@H]1CC[C@]2(C)O` [Example 53, 17β-Hydroxy-7α-(9-hydroxynonyl)-17α-methylandrost-4-en-3-one], the “Androgeneity at 1 μM” value is given as 0%. Further, the IC50 (Homo sapiens, 168 h) amounted to 40 nM.

On to `CCCCN(C)C(=O)CCCCCCCCCC[C@@H]1CC2=CC(=O)CC[C@]2(C)[C@H]2CC[C@]3(C)[C@@H](O)CC[C@H]3[C@H]12` [EM-101, N-butyl, N-methyl-11-(17′β-hydroxy-4′-androsten-3′-on-7′α-yl)undecanamide], for which the IC50 is 4440 nM and the “Androgeneity at 1 μM” value turned out to be 0%.

Turning to `CC12CCC(=O)C=C1CC(CCCCCCCCCC[S+]([O-])c1ccccc1)C1C2CCC2(C)C1CCC2(O)C(F)(F)C(F)(F)F` (stereo not drawn) [Example 20, 17β-Hydroxy-17α-(1,1,2,2,2-pentafluoroethyl)-7α-[10-(phenylsulfinyl)decyl]androst-4-en-3-one], the IC50 turned out to be 200 nM and the “Androgeneity at 1 μM” value worked out at 0%.

Consider `CC(O)(CS(=O)(=O)c1ccc(F)cc1)C(=O)Nc1ccc(C#N)c(C(F)(F)F)c1` (stereo not shown) [Casodex], for which the “Androgeneity at 1 μM” value is 7%. Also, the IC50 (Homo sapiens, 168 h) was found to be 440 nM.

As usually defined, the IC50 is the concentration that gives 50% inhibition.

The record behind these values is US6767903B1, “New7α, 17α-bis-alkylated testosterone derivatives and their use in long-term therapy of androgen-dependent diseases” (Schering AG, priority 1998, dated 2004).
